# Measured values: patent publication US6559330B1, “CALCIUM COMPLEX OF [[(4R)-4-[BIS{CARBOXY-.KAPPA.O)METHYL]AMINO-.KAPPA.N]-6,9-BIS[(CARBOXY.KAPPA.O)METHYL]-1-[(4,4-DIPHENYLCYCLOHEXYL)OXY]-1-HYDROXY-2-OXA-6,9-DIAZA-1-PHOSPHAUNDECAN-11-YLIC-ACID-.KAPPA.N6,.KAPPA.N9,.KAPPA.011]1-OXIDATO(6-)]-, HEXAHYDROGEN, ITS SALTS, PHARMACEUTICAL AGENTS THAT …” (Schering Aktiengesellschaft, priority 1999, dated 2003)
# Assays:
# [1] = HPLC content of Gd-MS-325 in the formulation after heating (100% method, external standard); format: physicochemical
# Description: The low content and the yellow coloration indicate decomposition.
# For comparison: Content after HPLC/95° C. (6 hours): 98.9%.
# [2] = blood pool agent; cited from earlier work
# [3] = target: human serum albumin (HSA) (Homo sapiens, UniProt P02768); settings: cited from earlier work
# Chain of human serum albumin (HSA) (P02768 25-609): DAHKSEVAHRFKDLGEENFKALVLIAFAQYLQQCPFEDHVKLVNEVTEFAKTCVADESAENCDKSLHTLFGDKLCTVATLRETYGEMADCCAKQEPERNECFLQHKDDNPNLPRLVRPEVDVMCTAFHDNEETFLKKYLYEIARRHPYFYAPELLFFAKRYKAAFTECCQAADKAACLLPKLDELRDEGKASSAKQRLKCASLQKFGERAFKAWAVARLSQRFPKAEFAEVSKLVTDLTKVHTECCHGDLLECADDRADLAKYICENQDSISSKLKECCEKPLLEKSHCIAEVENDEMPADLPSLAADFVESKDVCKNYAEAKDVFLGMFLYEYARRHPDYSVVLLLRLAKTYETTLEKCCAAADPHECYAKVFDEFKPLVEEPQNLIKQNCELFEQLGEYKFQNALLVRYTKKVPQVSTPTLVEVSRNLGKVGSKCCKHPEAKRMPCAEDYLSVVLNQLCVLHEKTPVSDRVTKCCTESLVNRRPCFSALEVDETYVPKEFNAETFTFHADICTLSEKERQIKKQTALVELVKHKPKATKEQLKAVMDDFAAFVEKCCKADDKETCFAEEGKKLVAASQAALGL
substance,measurement,setting,value
"gadolinato(3-),[[(4R)-4[bis[(carboxy-.kappa.O)methyl]amino-.kappa.N]-6,9-bis[(carboxy-.kappa.O)methyl]-1-[(4,4-diphenylcyclohexyl)oxy]-1-hydroxy-2-oxa-6,9-diaza-1-phosphaundecan-11-ylic-acid-.kappa.N6,.kappa.N9,kappa.011]1-oxidato(6-)]-trihydrogen [Gd-MS-325]",content of Gd-MS-325 (HPLC),"[1]; 95° C. (6 hours), for comparison",98.9%
same,content of Gd-MS-325 (HPLC),"[1]; in-situ formulation refluxed for 48 hours, low content and yellow coloration indicate decomposition",96.3%
same,retention in the intravascular space,[2],retained in the intravascular space
same,binding to human serum albumin (HSA),[3],binds to human serum albumin (HSA)
